In US8247383B2, “Drug-carrier complexes and methods of use thereof” (The General Hospital Corporation, priority 1999, dated 2012):
Like-named read-outs stand apart in the source and are kept apart here. d = 2'-deoxy (DNA); r = 2'-OH (RNA)

Key:
[1] = system: antifluorescein rabbit IgG; assay: Steric protection: kinetics of fluorescein quenching by anti-fluorescein IgG; assay type: binding; conditions: polymer chains positioned within 2 and 9 bases of fluorescein; 10-fold anti-fluorescein IgG, 20 mM PBS, pH=7.5
Method: To determine the degree of steric protection of the nucleotide core by polymer chains, a series of double-stranded oligonucleotides were synthesized. A model antigen (fluorescein) and a model protective chain (polyethyleneglycol) were positioned on the oligonucleotide at various distances. Then kinetics of fluorescein moiety interactions with fluorescence-quenching antifluorescein rabbit IgG (Molecular Probes, Oreg.) was determined to evaluate the degree of steric protection. The latter was investigated as a function of the distance between the antigen and the protective chain. Four 5′-amino modified oligonucleotides with the same sequence 5′-TTT-CTC-TCT-CTC-TCT-CTC-TCT-3′ (SEQ ID NO: 5) were obtained from a commercial source. […]
The resultant double-stranded oligonucleotides were purified by SEC HPLC and modified, through the 5′-aminogroup of the first strand, with N-hydroxysuccinimide ester of carboxy-polyethyleneglycol (MW=2 kDa and 20 kDa), and with N-hydroxysuccinimide ester of branched “PEG2” polyethyleneglycol (10 kDa). […] Fluorescein—antibody interaction was registered by quenching of the fluorescein fluorescence by the antibody. Fluorescence was registered at 515 nm (excitation at 490 nm). The kinetics of fluorescence quenching depended on the position of the fluorescein moiety relative to the polymer chain.

[2] = cited from earlier work
[3] = system: outbred mice; assay: Adduct toxicity in vivo; conditions: observed for 30 days
Method: Adduct toxicity in vivo. […] Bis-intercalator content was one molecule per 6 base pairs of the nucleotide core. […] The adduct and free bis-intercalator were administered intravenously, as described above, into male outbred mice (30±2 g, n=4 per group) at 30 mg/kg by bis-intercalator. In a third group, unloaded carrier was injected at 100 mg/kg within 15 minutes after the administration of 30 mg/kg of bis-doxorubicin.

[4] = Lyophilization and reconstitution in PBS with membrane filtration; assay type: physicochemical; conditions: one milligram by doxorubicin in 0.1 ml of 50 mM PBS, pH=7
Method: The adducts obtained as described in Examples 2 and 3 were used in a lyophilized form. Doxorubicin powder (Sigma Chemical Co., St. Louis, Mo.) and lyophilized “Doxorubicin for injection” were used as control preparations. Each of the four preparations, in the amount of one milligram by doxorubicin, were suspended in 0.1 ml of a 50 mM PBS, pH=7. […] The resultant solutions oligonucleotide-doxorubicin adduct solutions were filtered through […] PTFE membrane filters; doxorubicin was recovered in the filtrates with at least 98% yield (by adsorption at 470 nm).

[5] = system: human epithelial cells (kidney, line 293); assay: Carrier and adduct toxicity in cell culture (Trypan Blue staining); assay type: cell-based; conditions: control experiment, confluent and growing cultures
Method: Carrier toxicity in cell culture. Unloaded carriers (Example 7) were tested in near confluent culture of human epithelial cells (kidney, line 293, from ATCC #CRL 1573) in DMEM with 5% calf serum. Carriers were added to the cell culture at various concentrations, from 1 mg/ml to 1 mg/ml. Cell survival rate was determined by staining with Trypan Blue after a 16-hour incubation.
Adduct toxicity in cell culture. Doxorubicin-loaded carriers (Example 12) were tested in near confluent and growing cultures of human epithelial cells (kidney, line 293) in DMEM containing 5% calf serum. […] Cell survival rate was determined by staining with Trypan Blue after a 16-hour incubation.

[6] = Doxorubicin biodistribution (14C tissue radioactivity); assay type: in vivo, mice; conditions: 0.3 mg/kg via tail vein, 20 hours after injection
Method: (^14C)doxorubicin-loaded carriers (Example 12) and free (^14C)doxorubicin (control) were injected into normal outbred mice (males, 30 g) via tail vein, at 0.3 mg/kg. Biodistribution was studied by measuring tissue radioactivity 20 hours after injection. Tissue samples were disintegrated, solubilized, mixed with a scintillation cocktail and counted on a scintillation counter.

[7] = system: outbred mice; assay: Carrier toxicity in vivo; conditions: 100 mg/kg intravenously, observed for 30 days
Text: Carrier toxicity in vivo.

[8] = Carrier biokinetics (3H-labeled carriers, blood); assay type: in vivo; conditions: 1 mg/kg via tail vein, mice
Method: Unloaded carriers (Example 8) were labeled with tritium (^3H). Carriers were oxidized with periodate to produce aldehyde groups on the 3′-ribonucleotide base present in the structure, and reacted with [^3H] borohydride to introduce tritium into carrier core structure. Carriers were purified on Sephadex G-25 and injected at 1 mg/kg into normal outbred mice (males, 30 g) via tail vein. Blood samples were collected at different time points and counted. The blood half-lives were ca. 30 min and 10 hours for unprotected and PHF-protected carriers, respectively.

[9] = assay type: physicochemical
Method: An oligonucleotide with arbitrarily chosen […] sequence, 5′CGTCGACGTCGAATATACGC (SEQ ID NO: 3), and a complementary 5′-amino modified oligonucleotide 5′GC GTA TAT TCG ACG TCG ACG (SEQ ID NO: 4) were purchased from a commercial vendor. To form a double stranded oligonucleotide, the single-stranded oligonucleotides were hybridized and lyophilized as described in Example 1. The resultant double stranded oligonucleotide was stable at ambient (25° C.) and body temperature (37° C.).

[10] = parameters: species or system mice; conditions: mouse, in vivo, iv
Method: An arbitrarily chosen 5-amino modified 18-base phosphodiester oligonucleotide 5° […] (SEQ ID NO: 11), 0.11 mg, was modified with trace amount of ethylenediaminetraacetic anhydride and hybridized with (a) a complementary oligonucleotide, 5′[…] (SEQ ID NO: 12), and (b) analogous complementary oligonucleotide amino modified at both 5′ and 3′ ends and at positions 4, 9 and 15 (from 5′). The hybridized amino modified DSO was incubated with 1 ml of 10 mg/ml solution of N-hydroxycuccinimido-polyethyleneglycol, MW=10 kDa, at pH=8 for 8 hours. The products, PEG-modified double stranded oligonucleotides, were isolated by HPLC. Both PEG-modified and unmodified double stranded oligonucleotides were labeled with 111 in 0.5 M citrate buffer solution, pH=5.6. Labeled preparations were purified by SEC HPLC. Each was divided into 4 equal doses and administered intravenously to outbred mice (n=4 in each group, male, 31±2 g). Blood samples were taken immediately after injection, then at 0.25, 0.5, 1, 2, 4 and 8 hours.

Compound: 2 kDa polymer: fluorescein-labeled double-stranded oligonucleotide (SEQ ID NO: 5/6) modified at 5′-amino group with 2 kDa polyethyleneglycol (chain 1 TTTCTCTCTCTCTCTCTCTCT; chain 2 AGAGAGAGAGAGAGAGAGAAAA; fluorescein, 2 kDa PEG, chemistry not fully specified)
- decrease of the kinetic constant of fluorescein-antibody interaction [1]: 20%

Compound: 20 kDa polymer: fluorescein-labeled double-stranded oligonucleotide (SEQ ID NO: 5/6) modified at 5′-amino group with 20 kDa polyethyleneglycol (chain 1 TTTCTCTCTCTCTCTCTCTCT; chain 2 AGAGAGAGAGAGAGAGAGAAAA; 5'-amino linked 20 kDa PEG, fluorescein on an internal base, further chemistry not given here)
- decrease of the kinetic constant of fluorescein-antibody interaction [1]: 80%

Compound: C[C@H](CNCCNC[C@@H](C)N1C(=O)c2cccc3cc([N+](=O)[O-])cc(c23)C1=O)N1C(=O)c2cccc3cc([N+](=O)[O-])cc(c23)C1=O [DMP 840]
- solubility at physiological pH [2]: limited solubility

Compound: COc1cccc2c1C(=O)c1c(O)c3c(c(O)c1C2=O)C[C@@](O)(C(C)=O)C[C@@H]3O[C@H]1C[C@H](NCc2ccc(CN[C@H]3C[C@H](O[C@H]4C[C@](O)(C(C)=O)Cc5c(O)c6c(c(O)c54)C(=O)c4c(OC)cccc4C6=O)O[C@@H](C)[C@H]3O)cc2)[C@H](O)[C@H](C)O1 [WP-631]
- survival ([3]; 30 mg/kg bis-doxorubicin, then unloaded carrier 100 mg/kg within 15 minutes): all animals survived
- survival ([3]; 30 mg/kg by bis-intercalator intravenously, n=4 per group): only one animal survived
- solubility at physiological pH [2]: limited solubility

Compound: COc1cccc2c1C(=O)c1c(O)c3c(c(O)c1C2=O)C[C@@](O)(C(=O)CO)C[C@@H]3O[C@H]1C[C@H](N)[C@H](O)[C@H](C)O1 [doxorubicin, Doxorubicin]
- dissolution on suspending the preparation [4]: formed suspensions
- cytotoxic effects compared with doxorubicin-loaded carriers [5]: essentially the same cytotoxic effects
- label distribution to liver [6]: 3±0.6 % dose/g
- label distribution to lung [6]: 4.6±1.6 % dose/g
- label content in skeletal muscle ([6]; mean±standard deviation): 2±0.4 % dose/g
- solubility at physiological pH [2]: limited solubility

Compound: PHF-protected carriers: amino modified double-stranded oligonucleotide (SEQ ID NO: 9/8) conjugated with 10 kDa PHF (chain 1 ATGGCGCACGCTGGGAGAC; chain 2 TCTCCCAGCGTGCGCCATC; sugars from the 5' end d18 r1, backbone and methylation of C not given here; amino modifications at positions 1, 2, 12, 19 of first strand, PHF polymer conjugated)
- signs of toxicity [7]: None of the animals showed signs of toxicity
- survival ([7]; n=6): All animals survived
- blood half-life [8]: ~10 h

Compound: double stranded oligonucleotide: hybrid of 5′CGTCGACGTCGAATATACGC (SEQ ID NO: 3) and complementary 5′-amino modified SEQ ID NO: 4 (chain 1 CGTCGACGTCGAATATACGC; chain 2 GCGTATATTCGACGTCGACG; complementary strand carries 5'-amino modification, further chemistry not given here)
- stability of double stranded oligonucleotide [9]: stable

Compound: unmodified double stranded oligonucleotides: labeled SEQ ID NO: 11 hybridized with complementary SEQ ID NO: 12 (chain 1 CGTCGACGTCGAATATACGC; chain 2 GCGTATATTCGACGTCGACG; DNA, phosphodiester; one strand carries an unspecified label)
- blood half-life [10]: 0.2 ± 0.083 h

Compound: unprotected carriers: double-stranded carrier from unmodified oligonucleotides SEQ ID NO: 7 and 8 (chain 1 ATGGCGCACGCTGGGAGA; chain 2 TCTCCCAGCGTGCGCCATC; chain 1: DNA, backbone and methylation of C not given here; chain 2: sugars from the 5' end d18 r1, all phosphodiester, methylation of C not given here)
- blood half-life [8]: ca. 30 min
